One test relates to HCT116 cells. In words: Growth inhibition assay (MTS). It is filed as cell-based. Conditions: Homo sapiens, HCT-116, 48 h, Table 5; HCT116 cells, 48 hours treatment, MTS; read-out: Growth Inhibition (GI50, uM) HCT116. The procedure: (§1) SW480 or HCT116 cells were placed into 96 well microplate (10^4cells/well) and incubated for 24 hours at 37° C. 20 μl of [3-(4,5-dimethylthiazol-2-yl)-5-(3-carboxyphenyl)-2-(4-sulfophenyl)-2H-tetrazolium, inner salt](MTS) solution (Promega) was added into each well and the absorbance after 2 hour incubation at 37° C. (negative control) was read. And then, the cells were treated with TCF4 compound at various concentrations for 48 hours. 20 μl of MTS solution (Promega) was added into each well and incubated for 2 hour at 37° C. Cell viability was measured by reading the absorbance at 490 nm using a microplate reader (Molecular device) and cytotoxicity of a compound at each concentration was calculated.
as §1, with “a test” for “TCF4”
As a reminder, the GI50 is the concentration giving 50% growth inhibition. Take `CN1CC(=O)N2[C@@H](Cc3ccc(O)cc3)C(=O)N(Cc3cccc4ccccc34)C[C@@H]2N1C(=O)NCc1ccccc1` [Compound 60]: the GI50 stood at 6.3 ± 2.6 µM.

As to `C=CCN1CC(=O)N2[C@@H](Cc3ccc(O)cc3)C(=O)N(Cc3cc(F)c(F)cc3N(C)C)C[C@@H]2N1C(=O)NCc1ccccc1` [Compound 132], the GI50 turned out to be 2.2 ± 1.2 µM.

For the compound `CCCN1CC(=O)N2[C@@H](Cc3ccc(O)cc3)C(=O)N(Cc3ccc(F)cc3F)C[C@@H]2N1C(=O)NCc1ccccc1` [Compound 127], the GI50 worked out at 4.3 ± 0.7 µM.

`C=CCN1CC(=O)N2[C@@H](Cc3ccc(O)cc3)C(=O)N(Cc3ccc(Cl)c(N4CCOCC4)c3)C[C@@H]2N1C(=O)NCc1ccccc1` [Compound 111]: the GI50 was found to be 2.1 ± 0.2 µM.

As to `O=C1[C@H](Cc2ccc(O)cc2)N2C(=O)CON(C(=O)NCc3ccccc3)[C@H]2CN1Cc1cccc2cccnc12` [Compound 92], the 50% growth inhibitory concentration (GI50) was determined as 14.9 ± 2.2 µM.

Take `C=CCN1CC(=O)N2[C@@H](Cc3ccc(O)cc3)C(=O)N(Cc3ccc(OC)cc3)C[C@@H]2N1C(=O)NCc1ccc(Cl)c(Cl)c1` [Compound 185]: the GI50 is 4.5 ± 0.2 µM.

As to `CN(C)CCn1ncc2cccc(CN3C[C@H]4N(C(=O)CN(C)N4C(=O)NCc4ccccc4)[C@@H](Cc4ccc(O)cc4)C3=O)c21` [Compound 62], the GI50 was determined as 23.5 ± 2.7 µM.

With `CC(C)N1CC(=O)N2[C@@H](Cc3ccc(O)cc3)C(=O)N(Cc3ccc(F)cc3F)C[C@@H]2N1C(=O)NCc1ccccc1` [Compound 146], the GI50 was 4 ± 0.5 µM.

Regarding `CN(C)c1cc(F)ccc1CN1C[C@H]2N(C(=O)CN(C)N2C(=O)NCc2ccccc2)[C@@H](Cc2ccc(O)cc2)C1=O` [Compound 27], the GI50 came to 1.13 µM.

For `C=CCN1CC(=O)N2[C@@H](Cc3ccc(O)cc3)C(=O)N(Cc3cccc(N4CCCC4=O)c3)C[C@@H]2N1C(=O)NCc1ccccc1` [Compound 123], the GI50 was determined as 1.7 ± 0.3 µM.

`C#CCN1CC(=O)N2[C@@H](Cc3ccc(O)cc3)C(=O)N(Cc3cc(F)c(F)cc3N(C)C)C[C@@H]2N1C(=O)NCc1ccccc1` [Compound 81]: the concentration for 50% growth inhibition (GI50) worked out at 1.8 ± 0.1 µM.

Still in this test, the particulars now being: Homo sapiens, HCT-116; Table 5; HCT116 cells, 48 hours treatment, MTS; read-out: Growth Inhibition (GI50, uM) HCT116.
In the case of `C=CCN1CC(=O)N2[C@@H](Cc3ccc(OP(=O)(O)O)cc3)C(=O)N(Cc3ccc4c(c3)OCCO4)C[C@@H]2N1C(=O)NCc1ccccc1` [Compound 182], the GI50 was found to be 0.8 ± 0.1 µM.

The subject of a further test is SW480 cells. In words: Growth inhibition assay (MTS). Conditions: Homo sapiens, SW480, 48 h, Table 5; SW480 cells, 48 hours treatment, MTS; read-out: Growth Inhibition (GI50, uM) SW480. It counts as cell-based. The procedure: as §1
as §1, with “a test” for “TCF4”
For the compound `CN1CC(=O)N2[C@@H](Cc3ccc(O)cc3)C(=O)N(Cc3cccc4ccccc34)C[C@@H]2N1C(=O)NCc1ccccc1` [Compound 60], the 50% growth inhibitory concentration (GI50) came out at 8.3 ± 1.4 µM.

For `C=CCN1CC(=O)N2[C@@H](Cc3ccc(O)cc3)C(=O)N(Cc3cc(F)c(F)cc3N(C)C)C[C@@H]2N1C(=O)NCc1ccccc1` [Compound 132], the GI50 is 2.5 ± 0.1 µM.

For `CCCN1CC(=O)N2[C@@H](Cc3ccc(O)cc3)C(=O)N(Cc3ccc(F)cc3F)C[C@@H]2N1C(=O)NCc1ccccc1` [Compound 127], the GI50 worked out at 4.9 ± 0.7 µM.

In the case of `C=CCN1CC(=O)N2[C@@H](Cc3ccc(O)cc3)C(=O)N(Cc3ccc(Cl)c(N4CCOCC4)c3)C[C@@H]2N1C(=O)NCc1ccccc1` [Compound 111], the GI50 was 2.7 ± 0.8 µM.

As to `O=C1[C@H](Cc2ccc(O)cc2)N2C(=O)CON(C(=O)NCc3ccccc3)[C@H]2CN1Cc1cccc2cccnc12` [Compound 92], the GI50 was 12.9 ± 1 µM.

Regarding `C=CCN1CC(=O)N2[C@@H](Cc3ccc(O)cc3)C(=O)N(Cc3ccc(OC)cc3)C[C@@H]2N1C(=O)NCc1ccc(Cl)c(Cl)c1` [Compound 185], the 50% growth inhibitory concentration (GI50) was determined as 4.9 ± 0.4 µM.

Turning to `CN(C)CCn1ncc2cccc(CN3C[C@H]4N(C(=O)CN(C)N4C(=O)NCc4ccccc4)[C@@H](Cc4ccc(O)cc4)C3=O)c21` [Compound 62], the concentration for 50% growth inhibition (GI50) came to 35.3 ± 4.6 µM.

In the case of `CC(C)N1CC(=O)N2[C@@H](Cc3ccc(O)cc3)C(=O)N(Cc3ccc(F)cc3F)C[C@@H]2N1C(=O)NCc1ccccc1` [Compound 146], the concentration for 50% growth inhibition (GI50) was 3.7 ± 0.5 µM.

As to `CN(C)c1cc(F)ccc1CN1C[C@H]2N(C(=O)CN(C)N2C(=O)NCc2ccccc2)[C@@H](Cc2ccc(O)cc2)C1=O` [Compound 27], the GI50 came out at 11.7 µM.

The same test, now with this note: Homo sapiens; Table 5; SW480 cells, 48 hours treatment, MTS; read-out: Growth Inhibition (GI50, uM) SW480.
Consider `C=CCN1CC(=O)N2[C@@H](Cc3ccc(OP(=O)(O)O)cc3)C(=O)N(Cc3ccc4c(c3)OCCO4)C[C@@H]2N1C(=O)NCc1ccccc1` [Compound 182], for which the GI50 amounted to 1 ± 0.1 µM.

The next test deals with TCF4/β-catenin transcription (TOPFlash) in SW480 cells. The experiment in a line: Reporter gene assay (TOPFlash luciferase). It counts as cell-based. The note with it: Homo sapiens, SW480, Table 4; Reporter gene assay as described in Example 6; read-out: IC50. The method in brief: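 SW480 cells transiently co-transfected with TOPFlash and pRL-null (4:1 µg) using Superfect, then reseeded at 3×10^4 cells/well and incubated overnight at 37 °C. Compound treatment lasted 24 h before luciferase read-out.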
A general note: In a reporter assay the amount or activity of a reporter protein is the signal.
What is called IC50 is the concentration that gives 50% inhibition. On to `CN(C)c1cccc(CN2C[C@H]3N(C(=O)CN(C)N3C(=O)NCc3ccccc3)[C@@H](Cc3ccc(O)cc3)C2=O)c1` [Compound 38], for which the IC50 was found to be 7.1 µM.

`C=CCN1CC(=O)N2[C@@H](Cc3ccc(O)cc3)C(=O)N(Cc3ccccc3)C[C@@H]2N1C(=O)NCc1ccccc1` [Compound 164]: the IC50 amounted to 1.1 ± 0.2 µM.

Consider `CN1CC(=O)N2[C@@H](Cc3ccc(O)cc3)C(=O)N(Cc3cccc4occc34)C[C@@H]2N1C(=O)NCc1ccccc1` [Compound 40], for which the IC50 was determined as 7 µM.

Turning to `C=CCN1CC(=O)N2[C@@H](CN([C@H](C)c3ccc(Cl)c4cccnc34)C(=O)[C@@H]2Cc2ccc(O)cc2)N1C(=O)NCc1ccccc1` [Compound 189], the 50% inhibitory concentration (IC50) was 8.7 ± 0.4 µM.

With `CN1CC(=O)N2[C@@H](Cc3ccc(O)cc3)C(=O)N(Cc3cccc(OCCN4CCOCC4)c3)C[C@@H]2N1C(=O)NCc1ccccc1` [Compound 130], the concentration for half-maximal inhibition (IC50) is 6.1 ± 0.4 µM.

For `C[C@H]1[C@@H]2N(C(=O)CN(C)N2C(=O)NCc2ccccc2)[C@@H](Cc2ccc(O)cc2)C(=O)N1Cc1ccc(F)cc1F` [Compound 69], the IC50 was 1.4 ± 0.7 µM.

As for `C#CCN1CC(=O)N2[C@@H](Cc3ccc(O)cc3)C(=O)N(Cc3ccc(Cl)c(N(C)C)c3)C[C@@H]2N1C(=O)NCc1ccccc1` [Compound 110], the IC50 was 3.8 ± 0.6 µM.

On to `C#CCN1CC(=O)N2[C@@H](Cc3ccc(O)cc3)C(=O)N(Cc3ccc(Cl)c(N4CCOCC4)c3)C[C@@H]2N1C(=O)NCc1ccccc1` [Compound 140], for which the IC50 is 2.7 ± 0.3 µM.

(Values after patent US7671054B1, “Reverse-turn mimetics and method relating thereto” (Choongwae Pharma Corporation, priority 2001, dated 2010).)
